Data as given in patent US9265268B2, “Method of handling bananas” (priority 2009, dated 2016).

Key:
Assay type in all cases: in vivo, Musa
bananas [1] = experiment: Example US-7a: various number of bananas per bag (appearance); parameters: scale not given here; settings: 1,000 ppb 1-MCP, Day Number 7
Protocol: Bananas were handled and tested as in Example US-1, except that the number of bananas per bag was varied. Concentration of 1-MCP was 1,000 ppb. Also, two different types of MAP bags were used: type M and type D, as described above. Bananas were evaluated on day #7 after treatment with 1-MCP.

bananas [2] = experiment: Example US-1: bananas transferred to MAP after shipment
Excerpt: Bananas were harvested and shipped in to Ephrata, Pa., using standard commercial practices, in standard commercial shipping bags. For shipping, bags were placed in cartons; each carton held sufficient bags so that there were approximately 18.1 kg (40 lb.) of bananas in each carton.
After arrival in Ephrata, Pa., bananas were removed from the bags in which they were shipped and placed into new bags, which were either MAP (as described above) or T-bags (as described above). The new bags held approximately 1.3 kg (3 lb.) each. The new bags were twisted and secured shut. Bags were exposed to the 5-day ripening method used in Example 2 above. After ripening, the bags were transported to Spring House, Pa. in a refrigerated truck. Upon arrival, color stage of the bananas was 3.5 to 4.5. Bags were then placed into sealed tents for 12 hours at 13.3° C. […] After that 12-hour period, samples were aired for 1 hour and then kept in place at 13.3° C. (56° F.) for 10 hours and then transferred to an evaluation room, which was maintained at 17.8° C. (64° F.).
All bags remained in the evaluation room for 8 days. Bananas were visually inspected each day, whether they were still in bags or not. The bags were divided into three groups: • A. remained in the bags for 3 days, then removed from the bags for the remaining 5 days; • B. remained in the bags for 4 days, then removed from the bags for the remaining 4 days. • C. remained in the bags for 8 days, then removed on the eighth day for evaluation.

bananas [3] = experiment: Example 2X: evaluation process X (extended storage at 14° C.); settings: non-zero 1-MCP
Excerpt: Bananas were harvested at 13 weeks of age. Fruit bunches were separated into hands, then washed, and excess latex was removed in chlorinated water tanks using standard commercial practices. The washed hands of bananas were further broken into clusters and treated with fungicide. Clusters were placed into plastic bags; each bag held approximately 1.4 kg (3 lbs) of bananas. The bananas remained in these bags until they were removed for evaluation (see below).
At day 5 at approximately 4 pm, the bananas had reached color stage 2.5 to 3.5. Treatment groups PE-3-C, PE-10-C, MAP-3, and MAP-10 were then exposed to 1-MCP overnight at the concentrations shown above.
Some of the bananas from each group described in Example 2 were evaluated by process “X” as follows: After treatment groups PE-3-C, PE-10-C, MAP-3, and MAP-10 received exposure to 1-MCP, the bananas remained in their bags and were held at approximately 14° C. The bananas were inspected daily while they remained in the bags.

**Q.** For `CC1=CC1` [1-MCP, 1-methylcyclopropene], which “Color Stage” value (bananas [1]; MAP type D, 1 bananas per bag) is on record?
**A.** The value was 6.7.

**Q.** What about the “Sugar Spots” value (bananas [1]; MAP type D, 1 bananas per bag) of the same compound?
**A.** Its value is 0.7.

**Q.** And the “Color Stage” value (bananas [1]; MAP type D, 2 bananas per bag)?
**A.** Its value is 5.5.

**Q.** And the “Sugar Spots” value (bananas [1]; MAP type D, 2 bananas per bag)?
**A.** Its value is 1.0.

**Q.** What about the “Color Stage” value (bananas [1]; MAP type D, 3 bananas per bag) of the same compound?
**A.** Its value is 5.5.

**Q.** And the “Sugar Spots” value (bananas [1]; MAP type D, 3 bananas per bag)?
**A.** Its value is 0.3.

**Q.** And the “Color Stage” value (bananas [1]; MAP type D, 4 bananas per bag)?
**A.** The value was 5.5.

**Q.** And the “Sugar Spots” value (bananas [1]; MAP type D, 4 bananas per bag)?
**A.** Its value is 0.7.

**Q.** And the “Color Stage” value (bananas [1]; MAP type D, 5 bananas per bag)?
**A.** Its value is 4.8.

**Q.** And the “Sugar Spots” value (bananas [1]; MAP type D, 5 bananas per bag)?
**A.** The value was 1.3.

**Q.** What about the “Color Stage” value (bananas [1]; MAP type D, 6 bananas per bag) of the same compound?
**A.** The value was 5.2.

**Q.** And the “Sugar Spots” value (bananas [1]; MAP type D, 6 bananas per bag)?
**A.** The value was 0.3.

**Q.** And the “Color Stage” value (bananas [1]; MAP type D, 7 bananas per bag)?
**A.** The value was 4.8.

**Q.** What about the “Sugar Spots” value (bananas [1]; MAP type D, 7 bananas per bag) of the same compound?
**A.** The value was 0.7.

**Q.** What about the “Color Stage” value (bananas [1]; MAP type D, 8 bananas per bag) of the same compound?
**A.** The value was 4.5.

**Q.** What about the “Sugar Spots” value (bananas [1]; MAP type D, 8 bananas per bag) of the same compound?
**A.** Its value is 0.0.

**Q.** What about the “Color Stage” value (bananas [1]; MAP type D, 9 bananas per bag) of the same compound?
**A.** Its value is 4.5.

**Q.** What about the “Sugar Spots” value (bananas [1]; MAP type D, 9 bananas per bag) of the same compound?
**A.** The value was 0.7.

**Q.** And the “Color Stage” value (bananas [1]; MAP type D, 10 bananas per bag)?
**A.** Its value is 4.5.

**Q.** What about the “Sugar Spots” value (bananas [1]; MAP type D, 10 bananas per bag) of the same compound?
**A.** Its value is 0.0.

**Q.** What about the “Color Stage” value (bananas [1]; MAP type D, 11 bananas per bag) of the same compound?
**A.** The value was 4.3.

**Q.** What about the “Sugar Spots” value (bananas [1]; MAP type D, 11 bananas per bag) of the same compound?
**A.** The value was 0.0.

**Q.** And the “Color Stage” value (bananas [1]; MAP type D, 12 bananas per bag)?
**A.** The value was 4.5.

**Q.** And the “Sugar Spots” value (bananas [1]; MAP type D, 12 bananas per bag)?
**A.** Its value is 0.0.

**Q.** What about the “Color Stage” value (bananas [1]; MAP type M, 1 bananas per bag) of the same compound?
**A.** The value was 6.2.

**Q.** And the “Sugar Spots” value (bananas [1]; MAP type M, 1 bananas per bag)?
**A.** The value was 2.0.

**Q.** What about the “Color Stage” value (bananas [1]; MAP type M, 2 bananas per bag) of the same compound?
**A.** The value was 5.3.

**Q.** And the “Sugar Spots” value (bananas [1]; MAP type M, 2 bananas per bag)?
**A.** The value was 1.7.

**Q.** What about the “Color Stage” value (bananas [1]; MAP type M, 3 bananas per bag) of the same compound?
**A.** Its value is 4.8.

**Q.** And the “Sugar Spots” value (bananas [1]; MAP type M, 3 bananas per bag)?
**A.** Its value is 2.0.

**Q.** And the “Color Stage” value (bananas [1]; MAP type M, 4 bananas per bag)?
**A.** The value was 5.3.

**Q.** What about the “Sugar Spots” value (bananas [1]; MAP type M, 4 bananas per bag) of the same compound?
**A.** Its value is 1.0.

**Q.** What about the “Color Stage” value (bananas [1]; MAP type M, 5 bananas per bag) of the same compound?
**A.** Its value is 5.2.

**Q.** What about the “Sugar Spots” value (bananas [1]; MAP type M, 5 bananas per bag) of the same compound?
**A.** The value was 1.0.

**Q.** What about the “Color Stage” value (bananas [1]; MAP type M, 6 bananas per bag) of the same compound?
**A.** The value was 4.8.

**Q.** What about the “Sugar Spots” value (bananas [1]; MAP type M, 6 bananas per bag) of the same compound?
**A.** The value was 1.0.

**Q.** What about the “Color Stage” value (bananas [1]; MAP type M, 7 bananas per bag) of the same compound?
**A.** The value was 5.0.

**Q.** What about the “Sugar Spots” value (bananas [1]; MAP type M, 7 bananas per bag) of the same compound?
**A.** The value was 0.0.

**Q.** And the “Color Stage” value (bananas [1]; MAP type M, 8 bananas per bag)?
**A.** Its value is 4.5.

**Q.** And the “Sugar Spots” value (bananas [1]; MAP type M, 8 bananas per bag)?
**A.** Its value is 1.0.

**Q.** And the “Color Stage” value (bananas [1]; MAP type M, 9 bananas per bag)?
**A.** The value was 4.5.

**Q.** What about the “Sugar Spots” value (bananas [1]; MAP type M, 9 bananas per bag) of the same compound?
**A.** The value was 0.7.

**Q.** What about the “Color Stage” value (bananas [1]; MAP type M, 10 bananas per bag) of the same compound?
**A.** The value was 5.2.

**Q.** And the “Sugar Spots” value (bananas [1]; MAP type M, 10 bananas per bag)?
**A.** Its value is 1.0.

**Q.** What about the “Color Stage” value (bananas [1]; MAP type M, 11 bananas per bag) of the same compound?
**A.** Its value is 4.5.

**Q.** And the “Sugar Spots” value (bananas [1]; MAP type M, 11 bananas per bag)?
**A.** The value was 0.0.

**Q.** And the “Color Stage” value (bananas [1]; MAP type M, 12 bananas per bag)?
**A.** Its value is 4.5.

**Q.** What about the “Sugar Spots” value (bananas [1]; MAP type M, 12 bananas per bag) of the same compound?
**A.** The value was 0.0.

**Q.** What about the “development of color and sugar spots” value (bananas [2]; 1000 ppb versus 300 ppb 1-MCP in the same type of bag) of the same compound?
**A.** The value was “slower development of color and sugar spots”.

**Q.** And the “extension of shelf life, compared to T bags with no 1-MCP” value (bananas [2]; MAP with non-zero 1-MCP)?
**A.** The value was 8 days.

**Q.** And the “development of color and sugar spots after removal from bags” value (bananas [2]; MAP, 300 ppb or 1000 ppb 1-MCP versus MAP with zero 1-MCP)?
**A.** The value was “slower development of color and sugar spots”.

**Q.** What about the “development of color and sugar spots” value (bananas [2]; MAP, 300 ppb or 1000 ppb 1-MCP versus T-bags) of the same compound?
**A.** The value was “much slower development of color and sugar spots”.

**Q.** And the “development of color and sugar spots” value (bananas [2]; T-bags, 300 ppb or 1000 ppb 1-MCP versus zero)?
**A.** The value was “slower development of color and sugar spots”.

**Q.** And the acceptability of bananas (bananas [3]; MAP bags, day number 17 after treatment, held at 14° C.)?
**A.** The acceptability of bananas was “still acceptable”.

**Q.** And the “onset of sugar spots” value (bananas [3]; MAP bags, held in bags at 14° C.)?
**A.** The value was “showed a delay in the onset of sugar spots”.

**Q.** What about the “additional time bananas remained acceptable after removal from MAP bags” value (bananas [3]; after 17 days at 14° C., stored at approx. 22° C.) of the same compound?
**A.** The value was “three”.
